{
  "source": "ChEMBL document CHEMBL1765084",
  "about": "“Pyrimidine-2,4,6-trione derivatives and their inhibition of mutant SOD1-dependent protein aggregation. Toward a treatment for amyotrophic lateral sclerosis” (J Med Chem, 2011)",
  "test_system": "PC-12",
  "assay": "Cytoprotection against SOD1 G93A mutant induced cytotoxicity in rat PC12 cells assessed as reduction of protein aggregates by fluorescent assay",
  "type": "functional, cell-based",
  "data": [
    {"compound": "O=C1C(=O)N(C2CCCCC2)C(=O)N1C1CCCCC1", "values": [
      {"measurement": "EC50", "result": "> 32000", "unit": "nM"}
    ]},
    {"compound": "O=C1CC(=O)N(CCc2ccccc2)C(=O)N1CCC1=CCCCC1", "values": [
      {"measurement": "EC50", "result": 1740, "unit": "nM"}
    ]},
    {"compound": "O=c1cc(Cl)n(CCc2ccccc2)c(=O)n1CCc1ccccc1", "values": [
      {"measurement": "EC50", "result": "> 32000", "unit": "nM"}
    ]},
    {"compound": "O=C1CCC(=O)N(CCc2ccccc2)C(=O)N1CCc1ccccc1", "values": [
      {"measurement": "EC50", "result": "> 32000", "unit": "nM"}
    ]},
    {"compound": "CC1(C)C(=O)N(CCc2ccccc2)C(=O)N(CCc2ccccc2)C1=O", "values": [
      {"measurement": "EC50", "result": "> 32000", "unit": "nM"}
    ]},
    {"compound": "O=C1CC(=O)N(CCc2cccs2)C(=O)N1CCc1ccccc1", "values": [
      {"measurement": "EC50", "result": 3390, "unit": "nM"}
    ]},
    {"compound": "O=C1CC(=O)N(CCc2ccc(F)cc2)C(=O)N1CCc1ccc(F)cc1", "values": [
      {"measurement": "EC50", "result": 3450, "unit": "nM"}
    ]},
    {"compound": "O=C1CC(=O)N(CCc2ccc(F)cc2)C(=O)N1CCCCc1ccccc1", "values": [
      {"measurement": "EC50", "result": 3550, "unit": "nM"}
    ]},
    {"compound": "CCOCCN1C(=O)CC(=O)N(CCOCC)C1=O", "values": [
      {"measurement": "EC50", "result": 7750, "unit": "nM"}
    ]},
    {"compound": "O=C1CC(=O)N(CCc2cccc(Cl)c2)C(=O)N1CCc1cccc(Cl)c1", "values": [
      {"measurement": "EC50", "result": 2970, "unit": "nM"}
    ]},
    {"compound": "COc1ccc(CCN2C(=O)CC(=O)N(CCc3ccc(OC)c(OC)c3)C2=O)cc1OC", "values": [
      {"measurement": "EC50", "result": 11600, "unit": "nM"}
    ]},
    {"compound": "O=C1C(=O)N(CCc2ccccc2)C(=O)N1CCc1ccccc1", "values": [
      {"measurement": "EC50", "result": "> 32000", "unit": "nM"}
    ]},
    {"compound": "CCCCN1C(=O)CC(=O)NC1=O", "values": [
      {"measurement": "EC50", "result": "> 32000", "unit": "nM"}
    ]},
    {"compound": "O=C1CC(=O)N(C2CCCCC2)C(=O)N1CCc1ccccc1", "values": [
      {"measurement": "EC50", "result": 1670, "unit": "nM"}
    ]},
    {"compound": "CC(C)(C)CCN1C(=O)CC(=O)N(CCC(C)(C)C)C1=O", "values": [
      {"measurement": "EC50", "result": 2030, "unit": "nM"}
    ]},
    {"compound": "O=C1CC(=O)N(CCc2ccc(Cl)cc2Cl)C(=O)N1CCc1ccc(Cl)cc1Cl", "values": [
      {"measurement": "EC50", "result": 1870, "unit": "nM"}
    ]},
    {"compound": "O=C1CC(=O)N(Cc2ccccc2)C(=O)N1CCc1ccccc1", "values": [
      {"measurement": "EC50", "result": 1900, "unit": "nM"}
    ]},
    {"compound": "O=C1CC(=O)N(CCCc2ccccc2)C(=O)N1CCCc1ccccc1", "values": [
      {"measurement": "EC50", "result": 1320, "unit": "nM"}
    ]},
    {"compound": "O=C1CC(=O)N(C2CCc3ccccc32)C(=O)N1C1CCc2ccccc21", "note": "(stereo not given)", "values": [
      {"measurement": "EC50", "result": "> 32000", "unit": "nM"}
    ]},
    {"compound": "O=C1CC(=O)N(CCc2ccc(Cl)cc2)C(=O)N1CCc1ccccc1", "values": [
      {"measurement": "EC50", "result": 1190, "unit": "nM"}
    ]},
    {"compound": "CC(C)OCCN1C(=O)CC(=O)N(CCc2ccc(F)cc2)C1=O", "values": [
      {"measurement": "EC50", "result": 2970, "unit": "nM"}
    ]},
    {"compound": "COc1ccc(C=C2C(=O)N(C3CCCCC3)C(=O)N(C3CCCCC3)C2=O)c(OC)c1", "values": [
      {"measurement": "EC50", "result": 2580, "unit": "nM"}
    ]},
    {"compound": "COc1ccc(CCN2C(=O)CC(=O)N(CCc3ccccc3)C2=O)cc1", "values": [
      {"measurement": "EC50", "result": 2940, "unit": "nM"}
    ]},
    {"compound": "Cc1ccccc1C=C1C(=O)N(CCc2ccccc2)C(=O)N(CCc2ccccc2)C1=O", "values": [
      {"measurement": "EC50", "result": 2230, "unit": "nM"}
    ]},
    {"compound": "Cc1cc(C=C2C(=O)N(CCc3ccccc3)C(=O)N(CCc3ccccc3)C2=O)c(C)n1-c1ccccc1", "values": [
      {"measurement": "EC50", "result": 870, "unit": "nM"}
    ]}
  ]
}
